Laboratory results from patent US6503940B2, “Prodrugs for antimicrobial amidines” (The University of North Carolina at Chapel Hill, priority 1999, dated 2003).

Experiments:
[1] = Toxicity observed in rats of the anti-PCP screening; conditions: rat
Procedure: (§1) In the examples which follow, melting points were recorded using a Thomas-Hoover (Uni-Melt) capillary melting point apparatus and were uncorrected. TLC analysis was carried out on silica gel 60 F254 pre-coated aluminum sheets (0.20 mm layer thickness) (E. Merck of Whitehouse Station, N.J.) and detected under UV light. IR spectra were recorded using Perkin-Elmer Model 337 spectrometer sold by Perkin-Elmer of Norwalk, Conn. ^1H and ^13C NMR spectra were recorded employing a Varian GX400 or a Varian Unityplus 300 spectrometer (both sold by Varian of Palo Alto, Calif.) and chemical shifts (δ) are in ppm relative to TMS as internal standard. Mass Spectra were recorded on a VG Analytical 70-SE spectrometer (Georgia Institute of Technology, Atlanta, Ga.). IR spectra were recorded using a Perkin-Elmer 2000 instrument. […] All chloroformates were purchased from Aldrich Chemical Co. of St. Louis, Mo. Other chemicals and solvents were purchased from either Aldrich or Fischer Scientific of Houston, Tex. […] See Baijic, M., et al., Heterocycl. Commun., 1996, 2, pp. 135-140; Das, B. P., J. Med. Chem. 1977, 20, pp. 531-536; and Boykin, D. W., et al., Bioorg. Med. Chem Lett., 1996, 6, pp. 3017-3020. Anti-Pneumocystis carinii pneumonia activity screening was carried out according to published methods. See Jones, S. K. et al., Antimicrob. Agents Chemother., 1990, 34, pp. 1026-1030; Hall, J. E., et al., Antimicrob. Agents Chemother., 1998, 42, pp. 666-674; and Tidwell, R. R., et al., J. Med. Chem., 1990, 33, pp. 1252-1257. Compounds were routinely tested orally at 33 μmol/kg/day and intravenously at 22 μmol/kg/day. Saline- and pentamidine treated groups of rats were included as negative and positive controls, respectively.

Pneumocystis carinii [2] = experiment: Anti-Pneumocystis carinii pneumonia activity in immunosuppressed rat model; type: in vivo
Procedure: as §1

Pneumocystis carinii [3] = experiment: as above; type: in vivo; remark: listed apart in the source

Molecule | Toxicity ([1]; Oral @ 33.0 μmol/kg/day) | Toxicity ([1]; iv @ 22.0 μmol/kg/day) | Cysts/g of lung (% of control) (Pneumocystis carinii [2]; Oral @ 33.0 μmol/kg/day) | Cysts/g of lung (% of control) (Pneumocystis carinii [2]; iv @ 22.0 μmol/kg/day) | further results
2,5-bis[4-(N-2,2,2-trichloroethoxycarbonyl)amidinophenyl]furan [Compound 3] | 0 | 0 | 8.59 ± 9.14 % of control | 1.85 ± 1.79 % of control | 
[H]/N=C(\N)c1ccc(-c2ccc(-c3ccc(/C(N)=N/[H])cc3)o2)cc1 [Compound 1, 2,5-Bis(4-amidinophenyl)furan, reference compound] |  |  |  |  | Cysts/g of lung (% of control) (Pneumocystis carinii [3]; Oral @ 39.8 μmol/kg/day): 44.52 ± 13.30 % of control; Cysts/g of lung (% of control) (Pneumocystis carinii [3]; iv @ 13.3 μmol/kg/day): 0.83 ± 0.36 % of control; Toxicity ([1]; Oral @ 39.8 μmol/kg/day): 0; Toxicity ([1]; iv @ 13.3 μmol/kg/day): 0
COC(=O)NC(=N)c1ccc(-c2ccc(-c3ccc(C(=N)NC(=O)OC)cc3)o2)cc1 [Compound 2, 2,5-Bis[4-(N-methoxycarbonyl)amidinophenyl]furan] | 0 | 0 | 49.68 ± 20.50 % of control | 6.91 ± 6.01 % of control | 
CCSC(=O)N=C(N)c1ccc(-c2ccc(-c3ccc(C(N)=NC(=O)SCC)cc3)o2)cc1 [Compound 4, 2,5-bis[4-(N-thioethylcarbonyl)amidinophenyl]furan] | 0 | 0 | 19.52 ± 14.22 % of control | 83.01 ± 43.65 % of control | 
NC(=NC(=O)OCc1ccccc1)c1ccc(-c2ccc(-c3ccc(C(N)=NC(=O)OCc4ccccc4)cc3)o2)cc1 [Compound 5, 2,5-bis[4-(N-benzyloxycarbonyl)amidinophenyl]furan] |  |  | 18.09 ± 9.16 % of control |  | Cysts/g of lung (% of control) (Pneumocystis carinii [3]; iv @ 11.0 μmol/kg/day): 0.03 ± 0.02 % of control
Cc1oc(=O)oc1COC(=O)N=C(N)c1ccc(-c2ccc(-c3ccc(C(N)=NC(=O)OCc4oc(=O)oc4C)cc3)o2)cc1 [Compound 6, 2,5-bis{4-[N-(5-methyl-2-oxo-1,3-dioxol-4-ene-1-yl)methoxycarbonyl]amidinophenyl}furan] | 0 | 0 | 18.73 ± 11.87 % of control | 0.02 ± 0.01 % of control | 
NC(=NC(=O)Oc1ccccc1)c1ccc(-c2ccc(-c3ccc(C(N)=NC(=O)Oc4ccccc4)cc3)o2)cc1 [Compound 7, 2,5-Bis[4-(N-phenoxycarbonyl)amidinophenyl]furan] | 0 | 0 | 5.70 ± 5.15 % of control | 3.61 ± 1.80 % of control | 
NC(=NC(=O)Oc1ccc(F)cc1)c1ccc(-c2ccc(-c3ccc(C(N)=NC(=O)Oc4ccc(F)cc4)cc3)o2)cc1 [Compound 8, 2,5-bis[4-(N-(4-fluoro)phenoxycarbonyl)amidinophenyl]furan] | 0 | 0 | 2.21 ± 0.33 % of control | 0.02 ± 0.01 % of control | 
COc1ccc(OC(=O)N=C(N)c2ccc(-c3ccc(-c4ccc(C(N)=NC(=O)Oc5ccc(OC)cc5)cc4)o3)cc2)cc1 [Compound 9, 2,5-bis[4-(N-(4-methoxy)phenoxycarbonyl)amidinophenyl]furan] | 0 | 0 | 2.10 ± 2.08 % of control | 0.02 ± 0.01 % of control | 
CC(=O)OC(C)OC(=O)NC(=N)c1ccc(-c2ccc(-c3ccc(C(=N)NC(=O)OC(C)OC(C)=O)cc3)o2)cc1 (stereo not drawn) [Compound 10, 2,5-bis[4(1-Acetoxyethoxycarbonyl)amidinophenyl]furan] | 0 |  | 57.16 ± 10.19 % of control |  | Cysts/g of lung (% of control) (Pneumocystis carinii [3]; iv @ 11.0 μmol/kg/day): 1.21 ± 1.02 % of control
CCOC(=O)ON=C(N)c1ccc(-c2ccc(-c3ccc(C(N)=NOC(=O)OCC)cc3)o2)cc1 [Compound 11, 2,5-bis[4(N-ethoxycarbonyloxy)amidinophenyl]furan] | 0 |  | 96.90 ± 48.48 % of control |  | Cysts/g of lung (% of control) (Pneumocystis carinii [3]; iv @ 34.7 μmol/kg/day): 1.66 ± 0.58 % of control; Toxicity ([1]; iv @ 34.7 μmol/kg/day): 0
N=C(N)c1ccc(OCCCCCOc2ccc(C(=N)N)cc2)cc1 [Pentamidine, 1,5-bis(4-amidinophenoxy)pentane, reference compound] |  |  |  | 3.06 ± 0.90 % of control | 
